From patent US20230365554A1, “SUBSTITUTED PYRROLO-PYRIDINONE DERIVATIVES AND THERAPEUTIC USES THEREOF” (The Broad Institute, Inc., priority 2020, published 2023)

Tests used:
human CSNK1A1 = human CSNK1A1 (Homo sapiens (Human), UniProt P48729); assay: CSNK1A1 Assay 2 (ADP-Glo, 1 μM ATP); format: biochemical; details: median, Table 2, read-out: CSNK1A1 Assay 2 IC50 [mol/l] (median)
Procedure, shortened: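 GST-tagged full-length human CSNK1A1 from insect cells, preincubated 15 min with compound, then reacted 30 min at 22° C with 1 μM ATP and 30 μM biotinylated peptide substrate in pH 7.5 HEPES buffer. ADP measured by ADP-Glo luminescence; normalised to no-inhibitor (0%) and no-enzyme (100%) controls.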

human CSNK1D = human CSNK1D (Homo sapiens (Human), UniProt P48730); assay: CSNK1D assay (ADP-Glo, 1 μM ATP); format: biochemical; details: median, Table 2, read-out: CSNK1D IC50 [mol/l] (median)
human CSNK1D, sequence (P48730 whole entry): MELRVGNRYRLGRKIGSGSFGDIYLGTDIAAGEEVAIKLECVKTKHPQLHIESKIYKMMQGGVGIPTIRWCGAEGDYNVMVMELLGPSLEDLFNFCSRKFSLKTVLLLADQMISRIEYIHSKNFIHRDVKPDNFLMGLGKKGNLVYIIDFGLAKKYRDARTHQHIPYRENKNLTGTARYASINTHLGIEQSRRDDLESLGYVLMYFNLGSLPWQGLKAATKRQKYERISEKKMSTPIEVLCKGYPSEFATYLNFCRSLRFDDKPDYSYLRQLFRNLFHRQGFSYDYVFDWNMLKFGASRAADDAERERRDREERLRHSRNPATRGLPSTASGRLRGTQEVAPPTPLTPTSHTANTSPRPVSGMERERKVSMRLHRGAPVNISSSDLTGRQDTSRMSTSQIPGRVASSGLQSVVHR
Procedure, shortened: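 GST-tagged full-length human CSNK1D (baculovirus/insect cell; typically about 0.5 ng/μL) preincubated with compound 15 min, then reacted 30 min at 22 °C with 1 μM ATP and 30 μM biotinylated peptide (final) in HEPES pH 7.5 buffer. ADP quantified by ADP-Glo luminescence; data normalised to no-inhibitor and no-enzyme controls.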

human CSNK1A1, sequence (P48729 whole entry): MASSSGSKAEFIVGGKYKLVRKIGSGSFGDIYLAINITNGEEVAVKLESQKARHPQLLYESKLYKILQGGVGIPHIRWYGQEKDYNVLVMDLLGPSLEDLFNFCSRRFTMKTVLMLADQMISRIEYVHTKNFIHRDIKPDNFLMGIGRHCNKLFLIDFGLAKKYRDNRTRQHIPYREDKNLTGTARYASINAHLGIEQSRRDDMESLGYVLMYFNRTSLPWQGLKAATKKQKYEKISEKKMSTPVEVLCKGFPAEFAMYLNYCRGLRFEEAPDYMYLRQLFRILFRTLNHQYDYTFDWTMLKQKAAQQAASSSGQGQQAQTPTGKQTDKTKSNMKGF

CN1CC(CC2CC2)c2[nH]c(-c3ccnc(NC(=O)Cc4ccc(F)cc4)c3)c(Nc3cscn3)c2C1=O (single isomer, unassigned) [Example 51, N-{4-[(7R or S)-7-(cyclopropylmethyl)-5-methyl-4-oxo-3-(1,3-thiazol-4-ylamino)-4,5,6,7-tetrahydro-1H-pyrrolo[3,2-c]pyridin-2-yl]pyridin-2-yl}-2-(4-fluorophenyl)acetamide]
IC50 (human CSNK1A1): 20 nM
IC50 (human CSNK1D): 57 nM

CCC1CNC(=O)c2c1[nH]c(-c1ccnc(NC(=O)Cc3ccc(F)cc3)c1)c2Nc1ccccc1 (single isomer, unassigned) [Example 3, N-{4-[3-anilino-7-ethyl-4-oxo-4,5,6,7-tetrahydro-1H-pyrrolo[3,2-c]pyridin-2-yl]pyridin-2-yl}-2-(4-fluorophenyl)acetamide]
IC50 (human CSNK1A1): 3.8 nM
IC50 (human CSNK1D): 10 nM

CN1CC(CC(F)(F)F)c2[nH]c(-c3ccnc(NC(=O)Cc4ccc(F)cc4)c3)c(Nc3cscn3)c2C1=O (single isomer, unassigned) [Example 48, 2-(4-fluorophenyl)-N-{4-[(7R or S)-5-methyl-4-oxo-3-(1,3-thiazol-4-ylamino)-7-(2,2,2-trifluoroethyl)-4,5,6,7-tetrahydro-1H-pyrrolo[3,2-c]pyridin-2-yl]pyridin-2-yl}acetamide]
IC50 (human CSNK1A1): 7.5 nM
IC50 (human CSNK1D): 32 nM
